Reference: US20080220066A1 (HENDERSON MORLEY PLC, priority 2005, published 2008)
≈ marks a conversion by molar mass, not a printed value. Where “and” joins values, the source holds several entries; their conditions need not be identical. Equal values may be shown once. Read-outs that look alike come from different tables or passages of the source.

Experiments:
[1] = Method: Permeation experiments were carried out using all glass Franz-type cells incorporating callous plantar skin between a donor and receptor phase. Callous cuttings of approximately 0.6 cm diameter were required to fit the customised ‘franz’ cells used. Consequently, an in vitro permeation study was conducted that used 5 cells per gel treatment, with no more than a total of 15 cells being run simultaneously. […] An infinite dose of gel (˜1 g) was added to each donor compartment via syringe and PEG400, being used as a receptor phase in each, thereby enabling adequate ‘sink’ conditions, limiting hydrodynamic boundary effects and tissue swelling effects. The applied gel was occluded with glass cover slips and the cells stirred in a thermostatically controlled water bath, maintaining the skin temperature at 32° C. […] A total of five replicates were carried our for each gel. All samples were immediately analysed by HPLC.
The breakthrough time was taken from the point at which permeant was first detected in the receptor phase (dependent on the MDL for each permeant). Lag times were calculated by extrapolating the linear section of the cumulative amount permeated (steady state flux) to the X-axis (time).

[2] = system: Herpes simplex virus (HSV); assay: HSV standard plaque inhibition assay; format: cell-based
Source text: Using Herpes simplex virus (HSV), 50% plaque inhibitory dose (1D50) were established using the standard plaque inhibition assay.

[3] = system: Herpes simplex virus (HSV); assay: HSV virus yield (infectious virus particle production); format: cell-based; details: solvent as listed per compound; Torasemide at 90 μg/ml
[4] = for Flux: Q24 divided by 24
[5] = system: Varicella Zoster Virus (VZV)
MRC5 cells [6] = details: uninfected cells; drug(s) at VZV ID 50 concentrations
physchem = details: 32 °C, aqueous with cosolvent or surfactant or cyclodextrin, thermodynamic from solid
MRC5 cells [7] = assay: MRC5 cell replication; details: Frusemide 1.0 mg/ml; Digoxin 0.05 μg/ml; both at their VZV ID50 concentrations
MRC5 cells [8] = assay: MRC5 cell morphology / tolerance; details: Frusemide 1.0 mg/ml; Digoxin 0.05 ug/ml; combined dosage at individual ID 50; 72 hours
[9] = system: Varicella Zoster Virus (VZV); assay: microbe, parasite or virus in culture; details: Human alphaherpesvirus 3, MRC5, read-out: Digoxin IC50
Adenovirus = assay: 50% plaque inhibitory concentration, Adenovirus; details: unidentified adenovirus, A549, read-out: Digoxin IC50
Cytomegalovirus = assay: 50% plaque inhibitory concentration, Cytomegalovirus; details: Human betaherpesvirus 5, MRC5, read-out: Digoxin IC50
[10] = Saturated solubility in solvents and co-solvent mixes at 32° C
[11] = ‘Max’ Furosemide Gel Formulation

**Q.** With `C[C@H]1O[C@@H](O[C@H]2[C@@H](O)C[C@H](O[C@H]3[C@@H](O)C[C@H](O[C@H]4CC[C@@]5(C)[C@H](CC[C@@H]6[C@@H]5C[C@@H](O)[C@]5(C)[C@@H](C7=CC(=O)OC7)CC[C@]65O)C4)O[C@@H]3C)O[C@@H]2C)C[C@H](O)[C@@H]1O` [Digoxin] as the compound, how does the Lag time ([1]; 40:40:20 Prototype gel) read?
**A.** 100 h

**Q.** And the Permeation co-efficient ([1]; 40:40:20 Prototype gel)?
**A.** 1.1 × 10^−3 cmhr^−1

**Q.** And the Steady state flux ([1]; 40:40:20 Prototype gel)?
**A.** 1.14 ± 0.28 μc cm^−2hr^−1

**Q.** What about the Breakthrough time ([1]; Dig/Fur Ampule Gel Formulation) of the same compound?
**A.** ~24 h

**Q.** What about the Lag time ([1]; Dig/Fur Ampule Gel Formulation) of the same compound?
**A.** 82 h

**Q.** And the Steady state flux ([1]; Dig/Fur Ampule Gel Formulation)?
**A.** 0.069 μc cm^−2hr^−1

**Q.** And the “reduction of amount permeated, prototype versus ‘Max’ Digoxin gel” value ([1]; at 144 hours)?
**A.** 3.36 fold

**Q.** And the “steady state of flux” value ([1]; prototype gel)?
**A.** 1.14±0.28 μg cm^−2 hr^−1

**Q.** And the amount permeated ([1]; prototype gel, at 144 hours)?
**A.** 30 μg cm^−2

**Q.** And the Lag time ([1]; ‘Max’ Digoxin Gel Formulation)?
**A.** 18 h

**Q.** What about the Steady state flux ([1]; ‘Max’ Digoxin Gel Formulation) of the same compound?
**A.** 1.015 μc cm^−2hr^−1

**Q.** And the Breakthrough time ([1]; ‘Max’ Digoxin Gel Formulation (50:40:10, 8% HPC, pH 5))?
**A.** ~1 h

**Q.** And the “steady state of flux” value ([1]; ‘Max’ Digoxin gel formulation)?
**A.** 1.015 μg cm^−2 hr^−1

**Q.** What about the amount permeated ([1]; ‘Max’ Digoxin gel, at 144 hours) of the same compound?
**A.** 101 μg cm^−2

**Q.** And the Lag time [1, 11]?
**A.** 68 h

**Q.** And the Steady state flux [1, 11]?
**A.** 0.455 μc cm^−2hr^−1

**Q.** And the Breakthrough time ([1]; ‘Max’ Furosemide Gel Formulation (50:20:20:10, 8% HPC, pH 5))?
**A.** ~12 h

**Q.** And the “ICVT activity” value [2]?
**A.** potent ICVT activity

**Q.** And the ID50 [2]?
**A.** 60 ng per ml

**Q.** And the “comparative ‘ICVT-ivities’” value [2]?
**A.** as effective as Lanoxin

**Q.** What about the IC50 ([2]; BHK-21, read-out: Digoxin IC50) of the same compound?
**A.** 0.03 µg/mL (≈ 0.0384 µM)

**Q.** What about the IC50 ([2]; MRC5, read-out: Digoxin IC50) of the same compound?
**A.** 0.02 ± 0.0075 µg/mL (≈ 0.0256 µM)

**Q.** And the IC50 ([2]; Vero, read-out: Digoxin IC50)?
**A.** 0.06 µg/mL (≈ 0.0768 µM)

**Q.** What about the “HSV yield” value [3] of the same compound?
**A.** HSV yield reduced

**Q.** What about the “maximum concentrations observed in the receptor phase” value ([4]; 40:40:20 gels) of the same compound?
**A.** 42.47 µg/mL

**Q.** What about the Release date ([4]; Ampule Formulation) of the same compound?
**A.** 8.1 μg cm^−2 h^0.5

**Q.** And the Q24 ([4]; Ampule Formulation (8% HPC))?
**A.** 34 μg cm^−2

**Q.** And the Flux ([4]; Ampule Formulation)?
**A.** 1.4 μg cm^−2 h^−1

**Q.** And the “% applied dose” value ([4]; Gel 1:1, pH 7)?
**A.** 1.6%

**Q.** And the “Release Rate” value ([4]; Gel 1:1, pH 7)?
**A.** 3.48 μg cm^−2 h^0.5

**Q.** And the Flux ([4]; Gel 1:1, pH 7)?
**A.** 0.59 μg cm^−2 h^−1

**Q.** And the Q24 ([4]; Gel 1:1, prototype 40:40:20 mix, pH 7, 24 h)?
**A.** 14.07 μg cm^−2

**Q.** What about the Q24 ([4]; Gel 14:1 (F:D), prototype 40:40:20 mix, […] 981NF, pH 5, 24 h) of the same compound?
**A.** 42.47 μg cm^−2

**Q.** And the Flux ([4]; Gel 14:1, pH 5)?
**A.** 1.77 μg cm^−2 h^−1

**Q.** What about the “% applied dose” value ([4]; Gel 14:1, pH 5, assuming 2 g of gel in donor) of the same compound?
**A.** 4.0%

**Q.** What about the “Release Rate” value ([4]; Gel 14:1, pH 5, gradient of square root of time plot) of the same compound?
**A.** 10.18 μg cm^−2 h^0.5

**Q.** What about the “% applied dose” value ([4]; Gel 14:1, pH 7) of the same compound?
**A.** 1.6%

**Q.** And the Flux ([4]; Gel 14:1, pH 7)?
**A.** 0.73 μg cm^−2 h^−1

**Q.** What about the “% applied dose” value ([4]; Gel 14:1, pH 9) of the same compound?
**A.** 0.1%

**Q.** What about the Flux ([4]; Gel 14:1, pH 9) of the same compound?
**A.** 0.14 μg cm^−2 h^−1

**Q.** And the Q24 ([4]; Gel 14:1, prototype 40:40:20 mix, pH 7, 24 h)?
**A.** 17.62 μg cm^−2

**Q.** And the Q24 ([4]; Gel 14:1, prototype 40:40:20 mix, pH 9, 24 h)?
**A.** 3.34 μg cm^−2

**Q.** And the Release date ([4]; HPC Formulation)?
**A.** 245 μg cm^−2 h^0.5 and 243 μg cm^−2 h^0.5

**Q.** What about the Q24 ([4]; HPC Formulation (revised 50:40:10 gel, 8% HPC, pH 5, 14:1)) of the same compound?
**A.** 934 μg cm^−2

**Q.** What about the Flux ([4]; HPC Formulation) of the same compound?
**A.** 39 μg cm^−2 h^−1

**Q.** What about the Release date ([4]; Ultrez Formulation) of the same compound?
**A.** 274 μg cm^−2 h^0.5

**Q.** What about the Q24 ([4]; Ultrez Formulation (revised 50:40:10 gel, […] Ultrez, pH 5, 14:1)) of the same compound?
**A.** 1138 μg cm^−2

**Q.** What about the Flux ([4]; Ultrez Formulation) of the same compound?
**A.** 45 μg cm^−2 h^−1

**Q.** And the “reduction of release rate, 1:1 Gel versus 1:14 Gel” value ([4]; pH 7)?
**A.** 1.2 fold

**Q.** What about the VZV plaques ([5]; Digoxin 0.025 ug/ml, HIGH MOI) of the same compound?
**A.** TNTC

**Q.** And the VZV plaques ([5]; Digoxin 0.025 ug/ml, INTERMEDIATE MOI)?
**A.** TNTC

**Q.** What about the VZV plaques ([5]; Digoxin 0.025 ug/ml, LOW MOI, control 61) of the same compound?
**A.** 55^

**Q.** And the VZV plaques ([5]; Digoxin 0.050 ug/ml, HIGH MOI)?
**A.** TNTC

**Q.** And the VZV plaques ([5]; Digoxin 0.050 ug/ml, INTERMEDIATE MOI)?
**A.** TNTC

**Q.** What about the VZV plaques ([5]; Digoxin 0.050 ug/ml, LOW MOI, control 61) of the same compound?
**A.** 21^3

**Q.** And the VZV plaques ([5]; Digoxin 0.100 ug/ml, HIGH MOI)?
**A.** 0^4

**Q.** And the VZV plaques ([5]; Digoxin 0.100 ug/ml, INTERMEDIATE MOI)?
**A.** 0^4

**Q.** What about the VZV plaques ([5]; Digoxin 0.100 ug/ml, LOW MOI, control 61) of the same compound?
**A.** 0^4

**Q.** What about the “VZV plaque formation inhibited by” value ([5]; Frusemide at 1.0 mg/ml, Digoxin at 0.05 ug/ml) of the same compound?
**A.** 50%

**Q.** And the VZV plaques ([5]; High MOI (100 × Low), drug(s) at IC50)?
**A.** TNTC

**Q.** And the VZV plaques ([5]; Intermediate MOI (10 × Low), drug(s) at IC50)?
**A.** TNTC

**Q.** What about the VZV plaques ([5]; Low MOI, drug(s) at IC50, Control 61) of the same compound?
**A.** 21 and 21^5

**Q.** And the “VZV plaque formation inhibited by” value ([5]; each at respective IC50, Low MOI)?
**A.** about 50%

**Q.** And the “Virus particles per cell” value (feline herpesvirus; each drug at its IC50, alone or both combined, No Drug 50)?
**A.** 0.75

**Q.** And the “production of infectious virus reduced by” value (feline herpesvirus; each drug at its IC50, individually or in combination)?
**A.** 98.5%

**Q.** And the “remaining low level of virus replication” value (feline herpesvirus; each drug individually at its IC50)?
**A.** 0.5%

**Q.** What about the “MRC5 cell metabolism, MTT assay” value (MRC5 cells [6]) of the same compound?
**A.** normal levels of metabolism

**Q.** And the solubility at 24 h (physchem)?
**A.** 433 µg/mL (≈ 554 µM)

**Q.** And the “replication of uninfected MRC5 cells” value (MRC5 cells [7])?
**A.** replicated to normal yields

**Q.** And the “tolerance by MRC5 cells (morphology, replication)” value (MRC5 cells [8])?
**A.** very well tolerated

**Q.** And the IC50 [9]?
**A.** 0.02 ± 0.0075 µg/mL (≈ 0.0256 µM)

**Q.** And the IC50 (Adenovirus)?
**A.** 0.077 ± 0.022 µg/mL (≈ 0.0986 µM)

**Q.** What about the IC50 (Cytomegalovirus) of the same compound?
**A.** 0.02 ± 0.0075 µg/mL (≈ 0.0256 µM)

**Q.** And the “solubility in water” value ([10]; 32° C)?
**A.** relatively insoluble in water

**Q.** What about the solubility at 24 h ([10]; 32 °C, organic solvent or mixture, thermodynamic from solid) of the same compound?
**A.** 6270 µg/mL (≈ 8020 µM)

**Q.** And the “number of moles in saturated solution” value ([10]; 40:40:20 co-solvents mix)?
**A.** 0.55 μmol cm^−3

**Q.** What about the saturation limit ([10]; 40:40:20 co-solvents mix) of the same compound?
**A.** 433 μg cm^−3

**Q.** And the “increase in solubility, second versus first co-solvent mix” value ([10]; 50:40:10 versus 40:40:20)?
**A.** −15 fold

**Q.** And the “solubility in each individual solvent” value ([10]; ethanol, propylene glycol, PEG400, water, 32° C)?
**A.** highest solubility in ethanol and propylene glycol with relatively low solubility in PEG400 and water
